Literature values, collected in US7998710B2, “Process for purifying difructose dianhydride III” (Nippon Beet Sugar Mfg., Co., Ltd., priority 2003, dated 2011).

Experiments:
[1] = test system: absorption of minerals such as Ca; details: Patent Document 1
[2] = relative to sucrose

solubility in water compared with that of sucrose [2]: 90-95%
Structure (SMILES): OC[C@H]1O[C@@]2(CO[C@]3(CO)O[C@H](CO)[C@@H](O)[C@@H]3O2)[C@@H](O)[C@@H]1O [DFA III, α-D-fructofuranose-β-D-fructofuranose-2′,1:2,3′-dianhydride]
effect of promoting the absorption of minerals such as Ca [1]: promoting the absorption of minerals such as Ca
